The structures appear in SMILES notation.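 Tested at 5 concentrations; 48 h exposure; 96-well plates; endpoints linearly interpolated, else capped at highest concentration. The concentration for 50% growth inhibition is given as GI50. TGI: concentration producing complete growth inhibition.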

Among the test systems are A498 renal; A549 NSCLC; CCRF-CEM leukemia; EKVX NSCLC; HOP-62 NSCLC; HOP-92 NSCLC; IGROV1 ovarian; MDA-MB-231 breast; NCI-H522 lung; SNB-19 CNS.
Holding throughout (experiment): NCI tumour cell line growth inhibition, 48 h

As to `CN(C(=O)c1ccc(F)cc1C(F)(F)F)C1CCN(c2nnc(-c3ccnn3C)c3ccccc23)CC1`, the GI50 is 54.8 µM with A498 renal; 41 µM with A549 NSCLC; 31.6 µM in the assay with CCRF-CEM leukemia; 19.4 µM in the assay with EKVX NSCLC; 65.1 µM in the assay with HOP-62 NSCLC; 16.5 µM with HOP-92 NSCLC. The GI50 is 57.3 µM in the assay with IGROV1 ovarian, 37.8 µM in the assay on MDA-MB-231 breast, 16.2 µM in the assay on NCI-H522 lung and 51.7 µM with SNB-19 CNS. For the same compound, the TGI with A498 renal is above 100 µM; in the assay on A549 NSCLC, above 100 µM; in the assay on CCRF-CEM leukemia, above 100 µM; in the assay on EKVX NSCLC it was above 100 µM; with HOP-62 NSCLC, above 100 µM; in the assay on HOP-92 NSCLC, above 92.9 µM. The TGI in the assay on IGROV1 ovarian, in the assay on MDA-MB-231 breast, with NCI-H522 lung and in the assay with SNB-19 CNS was above 100 µM each time.
Turning to `O=C1Nc2ccc(Cl)cc2/C1=C\c1c(-c2ccc(F)cc2)nc2ccccn12`, the GI50 was 1.21 µM with A498 renal; 2.14 µM with A549 NSCLC; 2.31 µM with CCRF-CEM leukemia; 3.08 µM in the assay with EKVX NSCLC; 2.35 µM in the assay on HOP-62 NSCLC; 1.86 µM in the assay on HOP-92 NSCLC. The GI50 in the assay on IGROV1 ovarian is 3.06 µM; in the assay with MDA-MB-231 breast, 3.5 µM; with NCI-H522 lung it was 2.17 µM; in the assay with SNB-19 CNS, 3.33 µM. In addition, the TGI is 4.51 µM in the assay with A498 renal; 5.17 µM in the assay on A549 NSCLC; 7.24 µM with CCRF-CEM leukemia; 58.1 µM in the assay on EKVX NSCLC; 6.32 µM with HOP-62 NSCLC; 7.1 µM in the assay on HOP-92 NSCLC. Further, the TGI in the assay on IGROV1 ovarian came out at 8.58 µM; in the assay on MDA-MB-231 breast, 36.6 µM; in the assay on NCI-H522 lung it was 5.42 µM; in the assay with SNB-19 CNS, 27.4 µM.
Consider `COc1ccccc1-c1cc2c3c(nc4ccccc42)C(=O)c2cccnc2-c3n1`, for which the GI50 was 18.9 µM in the assay with A498 renal; 10 µM in the assay on A549 NSCLC; 4.94 µM in the assay on CCRF-CEM leukemia; 14.8 µM with EKVX NSCLC; 14.4 µM in the assay on HOP-62 NSCLC; 19.1 µM with HOP-92 NSCLC. The GI50 in the assay on IGROV1 ovarian is 3.78 µM; in the assay with MDA-MB-231 breast it was 18.2 µM; in the assay on NCI-H522 lung it was 1.65 µM; in the assay with SNB-19 CNS it was 17.4 µM. In addition, the TGI in the assay with A498 renal was 47.4 µM; with A549 NSCLC, 24 µM; in the assay on CCRF-CEM leukemia it was above 100 µM; with EKVX NSCLC, 45.4 µM; in the assay on HOP-62 NSCLC, 48.2 µM; in the assay with HOP-92 NSCLC it was above 100 µM. For the same compound, the TGI with IGROV1 ovarian was 18.1 µM; in the assay on MDA-MB-231 breast, above 56.7 µM; in the assay with NCI-H522 lung it was 5.23 µM; in the assay with SNB-19 CNS, 33.8 µM.
`CCCC[C@@H]1NC(=O)[C@H](CCCCN)NC(=O)[C@H](CCCNC(=N)N)NC(=O)[C@H](CC(C)C)NC(=O)[C@@H](NC(=O)[C@H](Cc2cccc(Cl)c2)NC(=O)[C@@H]2CCCN2C(=O)[C@@H](NC(C)=O)C(C)C)CCSSC[C@@H](C(=O)N[C@@H](CCCCN)C(=O)N2CCC[C@H]2C(=O)N2CCC[C@H]2C(=O)N[C@@H](CCC(=O)O)C(N)=O)NC(=O)[C@H](Cc2ccccc2)NC(=O)[C@H](CO)NC(=O)[C@H](C)NC(=O)[C@@H]2CCCN2C1=O`: the GI50 with A498 renal, in the assay on A549 NSCLC, in the assay on CCRF-CEM leukemia, with EKVX NSCLC, in the assay on HOP-62 NSCLC and with HOP-92 NSCLC was above 50 µM each time. The GI50 in the assay with IGROV1 ovarian, in the assay with MDA-MB-231 breast, in the assay with NCI-H522 lung and in the assay with SNB-19 CNS was above 50 µM throughout. Also, the TGI in the assay on A498 renal, with A549 NSCLC, with CCRF-CEM leukemia, in the assay on EKVX NSCLC, with HOP-62 NSCLC and with HOP-92 NSCLC was above 50 µM throughout. The TGI in the assay with IGROV1 ovarian, in the assay with MDA-MB-231 breast, with NCI-H522 lung and in the assay on SNB-19 CNS was above 50 µM each time.
As to `O=C1C=C(SCCO)C(=O)c2ccccc21`, the GI50 in the assay on A498 renal is 13.9 µM; in the assay on A549 NSCLC it was 2.24 µM; in the assay on CCRF-CEM leukemia, 1.14 µM; with EKVX NSCLC, 1.46 µM; in the assay on HOP-62 NSCLC it was 1.7 µM; in the assay on HOP-92 NSCLC it was 1.3 µM. The GI50 with IGROV1 ovarian is 3.61 µM; in the assay with MDA-MB-231 breast, 1.42 µM; with NCI-H522 lung it was 1.89 µM; in the assay with SNB-19 CNS it was 1.9 µM. The TGI with A498 renal came to 27 µM; in the assay on A549 NSCLC it was 4.59 µM; in the assay on CCRF-CEM leukemia, 4.79 µM; in the assay on EKVX NSCLC it was 3.33 µM; with HOP-62 NSCLC, 3.55 µM; in the assay with HOP-92 NSCLC it was 3.01 µM. The TGI in the assay on IGROV1 ovarian came out at 14.7 µM; with MDA-MB-231 breast, 3.89 µM; in the assay with NCI-H522 lung, 3.97 µM; in the assay with SNB-19 CNS, 4.18 µM.
With `COc1cc(OC)c(-c2cc(=O)c3c(OC)c(OC)c(OC)c(OC)c3o2)cc1OC`, the TGI in the assay on A498 renal was above 100 µM; with A549 NSCLC, above 100 µM; in the assay with CCRF-CEM leukemia it was above 100 µM; in the assay on EKVX NSCLC, above 100 µM; with HOP-62 NSCLC, above 100 µM; with HOP-92 NSCLC it was 59 µM. Further, the TGI in the assay on IGROV1 ovarian, in the assay on MDA-MB-231 breast, in the assay on NCI-H522 lung and in the assay on SNB-19 CNS was above 100 µM throughout.
As to `Cc1ccc(NS(=O)(=O)c2ccc(-c3cnc(C4CC4)o3)cc2)cc1`, the GI50 with A498 renal was 2.05 µM; with A549 NSCLC, 4.55 µM; in the assay with CCRF-CEM leukemia it was 3.31 µM; in the assay with EKVX NSCLC, 4.24 µM; in the assay with HOP-62 NSCLC it was 3.13 µM; in the assay with HOP-92 NSCLC, 2.14 µM. The GI50 in the assay with IGROV1 ovarian was 3.78 µM; in the assay on MDA-MB-231 breast, 4.5 µM; in the assay on NCI-H522 lung, 2.43 µM; with SNB-19 CNS, 3.88 µM. In addition, the TGI was determined as 6.83 µM with A498 renal; 26.2 µM in the assay on A549 NSCLC; 34.6 µM with CCRF-CEM leukemia; 19.9 µM in the assay with EKVX NSCLC; 16.7 µM in the assay on HOP-62 NSCLC; 13.2 µM in the assay with HOP-92 NSCLC. Moreover, the TGI with IGROV1 ovarian came out at 17.3 µM; with MDA-MB-231 breast it was 18.8 µM; in the assay on NCI-H522 lung it was 17.4 µM; in the assay with SNB-19 CNS, 16.6 µM.
With `Cc1c(Cl)ccc2c1NC(=O)C2(O)CC(=O)c1ccc(Cl)cc1Cl` (stereo not given), the TGI in the assay on A498 renal is above 50 µM; in the assay on A549 NSCLC it was above 50 µM; in the assay on CCRF-CEM leukemia, 22.4 µM; with EKVX NSCLC, above 50 µM; in the assay with HOP-62 NSCLC it was above 50 µM; in the assay on HOP-92 NSCLC, above 50 µM. Also, the TGI with IGROV1 ovarian, in the assay with MDA-MB-231 breast, in the assay with NCI-H522 lung and in the assay on SNB-19 CNS was above 50 µM in each case.
Regarding `CN(C)c1c(Cl)c(=O)oc2c1ccc1nc(-c3ccccc3)sc12`, the TGI with A498 renal, in the assay on A549 NSCLC, in the assay on CCRF-CEM leukemia, in the assay on EKVX NSCLC, in the assay on HOP-62 NSCLC and in the assay with HOP-92 NSCLC was above 100 µM in each case. Moreover, the TGI in the assay on IGROV1 ovarian, in the assay on MDA-MB-231 breast, in the assay on NCI-H522 lung and in the assay on SNB-19 CNS was above 100 µM in each case.
